#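 Values below derive from 48-hour exposures of cells grown in 96-well plates, with endpoints linearly interpolated between the two concentrations bracketing the appropriate inhibition level. Definition used: TGI = concentration required for complete inhibition of growth.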
# Experiments:
# Assay in all cases: growth of human tumour cells (NCI), 48 h
# UACC-257 melanoma = system: UACC-257 melanoma
# NCI-H23 lung = system: NCI-H23 lung
# OVCAR-8 ovarian = system: OVCAR-8 ovarian
# K-562 leukemia = system: K-562 leukemia
# UO-31 renal = system: UO-31 renal
# MOLT-4 leukemia = system: MOLT-4 leukemia
# EKVX NSCLC = system: EKVX NSCLC
# A549 NSCLC = system: A549 NSCLC
# SN12C renal = system: SN12C renal
# OVCAR-5 ovarian = system: OVCAR-5 ovarian
# MCF7 breast = system: MCF7 breast
# SK-MEL-28 melanoma = system: SK-MEL-28 melanoma
# SNB-19 CNS = system: SNB-19 CNS
# RXF 393 renal = system: RXF 393 renal
# HOP-62 NSCLC = system: HOP-62 NSCLC
# HL-60(TB) leukemia = system: HL-60(TB) leukemia
# SF-268 CNS = system: SF-268 CNS
# SW-620 colon = system: SW-620 colon
# NCI-H522 lung = system: NCI-H522 lung
# KM20L2 colon = system: KM20L2 colon
Compound,TGI (UACC-257 melanoma),TGI (NCI-H23 lung),TGI (OVCAR-8 ovarian),TGI (K-562 leukemia),TGI (UO-31 renal),TGI (MOLT-4 leukemia),TGI (EKVX NSCLC),TGI (A549 NSCLC),TGI (SN12C renal),TGI (OVCAR-5 ovarian),TGI (MCF7 breast),TGI (SK-MEL-28 melanoma),TGI (SNB-19 CNS),TGI (RXF 393 renal),TGI (HOP-62 NSCLC),TGI (HL-60(TB) leukemia),TGI (SF-268 CNS),TGI (SW-620 colon),TGI (NCI-H522 lung),TGI (KM20L2 colon)
Cc1ccc(-c2csc(=Nc3c(C)n(C)n(-c4ccccc4)c3=O)n2CCO)cc1,> 100 µM,> 100 µM,> 100 µM,> 100 µM,> 100 µM,> 100 µM,> 100 µM,> 100 µM,> 100 µM,> 100 µM,> 100 µM,> 100 µM,> 100 µM,> 100 µM,> 100 µM,> 100 µM,> 100 µM,,,
CCCCN1C(=O)NC(Cc2ccccc2)C1=O (centres undefined),> 100 µM,> 100 µM,> 100 µM,,> 100 µM,,> 100 µM,> 100 µM,> 100 µM,> 100 µM,,> 100 µM,> 100 µM,> 100 µM,> 100 µM,,> 100 µM,> 100 µM,> 100 µM,> 100 µM
CCCCCCCCCCCCCCCCOCC(COP(=O)([O-])OCC[N+](C)(C)C)OCCCCCCCCCCCCCCCC (centres undefined),> 100 µM,> 100 µM,> 100 µM,> 100 µM,> 100 µM,> 100 µM,> 100 µM,,> 100 µM,> 100 µM,,> 100 µM,> 100 µM,> 100 µM,> 100 µM,> 100 µM,> 100 µM,> 100 µM,> 100 µM,> 100 µM
OCCN(CCO)c1ccc2c(c1)Cc1ccccc1-2,96.7 µM,> 100 µM,> 100 µM,> 100 µM,> 100 µM,> 100 µM,> 100 µM,> 100 µM,> 100 µM,> 100 µM,60.5 µM,> 100 µM,> 100 µM,,> 100 µM,> 100 µM,> 100 µM,> 100 µM,,
CC(C)(C)C(=O)C(C(c1ccccc1)N1CCOCC1)N1CCOCC1 (centres undefined),> 100 µM,> 100 µM,> 100 µM,> 100 µM,> 100 µM,> 100 µM,> 100 µM,> 100 µM,> 100 µM,> 100 µM,,> 100 µM,> 100 µM,> 100 µM,> 100 µM,,> 100 µM,> 100 µM,> 100 µM,
O=[n+]1c2ccccc2n([O-])c2cc(Br)ccc21,34.9 µM,49.6 µM,47.9 µM,33.4 µM,28.1 µM,2.19 µM,49.9 µM,39.4 µM,42.3 µM,> 100 µM,53 µM,> 100 µM,> 100 µM,41.1 µM,> 100 µM,7.56 µM,55.3 µM,75.7 µM,30.2 µM,
